For one experiment, the system named is A-subunit. Format: binding, Escherichia coli.
The target of the next experiment is Stx2a (Escherichia phage 933W, UniProt P09385+P09386). The experiment is described as follows: cell-based. On the set-up: species or system Escherichia coli.
The next experiment addresses Stx1a (UniProt P08026+P69178). The experiment is described as follows: cell-based. On the set-up: species or system Escherichia coli.
A further experiment deals with Stx2a A-subunit (Escherichia phage 933W, UniProt P09385). The experiment is described as follows: biochemical. Format: binding, Escherichia coli.
In a further experiment the target is Stx1a A-subunit (Enterobacteria phage H19B, UniProt P08026). The experiment is described as follows: biochemical. Type of experiment: binding, Escherichia coli.
Experiment [1] deals with B-subunits of Stx1a and Stx2a. The conditions noted are these: cited from earlier work.
The next experiment relates to EHEC. The conditions noted are these: mouse, in vivo; cited from earlier work.

Square brackets hold non-standard residues; d marks the D form. Ends that are not written are not given here. Peptide text beside a SMILES is read from it. βAla = NCCC(=O)O

Consider Arg-Arg-Arg-Arg (RRRR), for which the “inhibition of the binding between MMβA-mono and the A-subunit” value (shortened to “inhibition”) with A-subunit is “efficiently inhibited”. Take `CSCC[C@H](NC(=O)[C@H](C)NC(=O)[C@@H](N)CCSC)C(=O)N[C@@H](CCSC)C(=O)NCCC(=O)N[C@@H](CCCNC(=N)N)C(=O)N[C@@H](CCCNC(=N)N)C(=O)N[C@@H](CCCNC(=N)N)C(=O)N[C@@H](CCCNC(=N)N)C(=O)N[C@@H](C)C(N)=O` [MMβA-mono] (H-MAMM[βAla]RRRRA-NH2): the results for the IC50 against Stx2a and at Stx1a were 9.6 µM and 59.2 µM, respectively. The Kd stood at 0.05 µM on Stx2a A-subunit and 0.032 µM on Stx1a A-subunit. Consider ARRRRA, for which, in the experiment on A-subunit, the “inhibition” value is “efficiently inhibited”. As for Arg-Arg-Arg-Arg-Ala (RRRRA), the “inhibition” value in the experiment on A-subunit is given as “efficiently inhibited”. For “Galα[1-4]-Galβ[1-4]-Glcβ- [free trisaccharide]”, the Kd entry in experiment [1] is reported as “mM order”. As for MMARRRR [MMA-tet], in the experiment with EHEC, the “inhibitory effects against the lethality in EHEC infected mice” value is given as “potent inhibitory effects”.

Values taken from publication PMC8111002 (Communications Biology, 2021).
